Reference: patent EP2823816A1, “Inhibitors of Neuropilin and use thereof for the treatment of Neuropilin-related diseases” (Tragex Pharma, priority 2013, dated 2015)

Key:
VEGF-R1 = target: T1, VEGF-R1 (Homo sapiens, UniProt P17948); experiment: ELISA, inhibition of VEGF binding to coated receptor; conditions: VEGF-A165b / VEGF-R1; compound at 10 µM; read-out: Percent of binding inhibition (± SD)
T1 construct: purchased R&D Systems, UK 321-FL-050/CF
Protocol: Elisa test was performed covering a 96-well microplate (BD Biosciences, France, cat n° 353046) surface with 100 µL of 1X PBS, pH 7.4 with Ca^2+ and Mg^2+, (Lonza, France, cat n° 17-513F/12) solution containing 0.2 µg/mL of VEGF-R1 (R&D Systems, UK, cat n° 321-FL-050/CF) or 2 µg/mL of NRP-1 (R&D Systems, UK, cat n° 3870-N1-025). The plate was sealed and incubated overnight at 4°C. After 3 washes with 200 µL of 1X PBS 0.5% (v/v) Tween 20 (Sigma, France, cat n° 34078) (Buffer A), the plate was blocked by adding 200 µL of 1× PBS with 0.5% (w/v) BSA (Eurobio, France, cat n° GAUBSA01-65) and agitated at 37°C for 2 h. […] Luminescence was quantified with an EnVision™ 2101 Multilabel reader (Perkin Elmer, USA) and the data analyzed by Wallac Envision manager software. […] Non-specific binding is defined as the signal measured in the absence of receptor coated on the microplate. The specific binding was calculated as the difference between total binding and non-specific binding. The percentage of inhibition was calculated as following: Inhibition % = 100 × ((Signal measured-non specific binding signal))/((Max binding signal obtained without inhibitor-non specific binding signal without receptor)) [formula]

HUVEC cells [1] = experiment: WST-1 proliferation assay; type: cell-based; conditions: in vitro, Figure 1B
Protocol: (§1) After observation of cells under the microscope, old media were removed and the adherent cells washed gently twice with PBS (Phosphate Buffer Saline, -Ca^2+, -Mg^2+, Lonza cat n°: 17-512F/12). All cells were detached with 3 ml of trypsin/EDTA (chelator of calcium and magnesium ions) (Lonza), incubated for 5 min at 37°C, and examined using a microscope to ensure that the cells were detached and floating. Then, 3 ml TNS (Trypsin Neutralizing Solution, Lonza, France, cat n° CC-5002) or of culture medium were added to inactivate the trypsin, and the cell suspension was transferred in a falcon tube and centrifuged for 7 min at 1400 rpm. The supernatant was removed and the cell pellet resuspended in […] of culture medium. 50 µL of this solution were transferred in 20 µL of isotonic solution and the cells were counted by count cellular (Beckman Coulter). […]
(§2) The cell proliferation WST-1 assay is a colorimetric assay for the quantification of cell proliferation and viability, based on the enzymatic cleavage of the tetrazolium salt WST-1 added to the culture medium, to a water soluble colored formazan dye, detected by absorbance at 450 nm, by mitochondrial succinate-tetrazoliumreductase in viable cells. […]

MDA-MB-231 = experiment: WST-1 proliferation / cytotoxic test; type: cell-based, human; conditions: for IC50: Homo sapiens
Protocol: as §1, §2
After an incubation period of 72 h, at day 4, were prepared the 19 mL medium with reagent WST-1 1mL (10 mL WST-1 in 200 mL well). […] The cells were incubated at 37°C in a humidified atmosphere of 5% CO2 for 1h30 and the absorbance at 450-655 nm was measured by Microplate Manager 5.2 (Bio-Rad).

HUVEC cells [2] = experiment: Adhesion test (crystal violet); type: cell-based; conditions: in vitro, Figure 1A
Protocol: as §1
After an incubation period of 72 h, the adherent cells were fixed with […] paraformaldehyde 3% for 15 min at room temperature. […] The microplate was stirred to obtain a homogenous solution and absorbance was quantified at 580 nm by Microplate Manager 5.2. The percentage of inhibition was calculated as follow: % inhibition = 100-[(DOsample/DOcontrol)*100]. […]

T1 sequence (P17948 with tags, fused parts or gaps limits assumed): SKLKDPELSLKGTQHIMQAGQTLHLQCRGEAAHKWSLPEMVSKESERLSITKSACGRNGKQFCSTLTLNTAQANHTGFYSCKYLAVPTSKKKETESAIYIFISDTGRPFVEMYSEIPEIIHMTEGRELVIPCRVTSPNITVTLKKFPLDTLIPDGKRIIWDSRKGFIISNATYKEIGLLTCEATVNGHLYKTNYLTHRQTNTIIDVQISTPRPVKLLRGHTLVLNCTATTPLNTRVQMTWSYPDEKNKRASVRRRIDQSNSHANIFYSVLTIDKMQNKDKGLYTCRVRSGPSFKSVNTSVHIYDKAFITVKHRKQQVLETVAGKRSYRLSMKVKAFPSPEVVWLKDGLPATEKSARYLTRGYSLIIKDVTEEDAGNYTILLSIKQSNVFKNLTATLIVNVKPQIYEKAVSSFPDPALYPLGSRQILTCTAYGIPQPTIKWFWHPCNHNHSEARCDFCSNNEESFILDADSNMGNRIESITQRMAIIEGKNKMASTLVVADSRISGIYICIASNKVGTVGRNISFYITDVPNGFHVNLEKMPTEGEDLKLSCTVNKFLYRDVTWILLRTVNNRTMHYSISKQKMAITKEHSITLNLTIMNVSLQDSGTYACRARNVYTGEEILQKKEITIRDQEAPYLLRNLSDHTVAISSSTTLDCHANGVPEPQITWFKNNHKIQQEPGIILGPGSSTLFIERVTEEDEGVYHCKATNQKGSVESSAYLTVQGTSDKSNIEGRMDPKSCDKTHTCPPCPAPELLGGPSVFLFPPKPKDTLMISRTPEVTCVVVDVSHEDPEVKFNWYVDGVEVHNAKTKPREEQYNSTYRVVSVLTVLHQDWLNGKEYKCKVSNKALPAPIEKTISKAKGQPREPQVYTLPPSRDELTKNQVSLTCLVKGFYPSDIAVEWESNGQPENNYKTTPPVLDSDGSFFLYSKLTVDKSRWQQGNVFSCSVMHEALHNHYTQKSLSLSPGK

## CCOc1ccccc1NC(=O)c1ccc(C)c(S(=O)(=O)Nc2ccc(C)cc2)c1 [Compound 1, N-(2-ethoxyphenyl)-4-methyl-3-(N-(p-tolyl)sulfamoyl)benzamide]
VEGF-R1
  inhibition at 10 µM: 23 ± 2.2%
HUVEC cells [1]
  proliferation of HUVEC cells: inhibited
MDA-MB-231; Breast, MDA-MB-231, wst-1 cytotoxic test, 72 h
  IC50: 700 ± 80 nM
MDA-MB-231; inhibition of proliferation, clone MDA-MB-231 (Table 2)
  IC50: 700 ± 50 nM
MDA-MB-231; in vitro, Figure 3B
  proliferation of MDA-MB-231 cells: inhibits
HUVEC cells [2]
  adhesion of HUVEC cells: inhibited
